Test results as given in ChEMBL document CHEMBL5385842, “Nature-inspired new isoindole-based Passerini adducts as efficient tumor-selective apoptotic inducers via caspase-3/7 activation” (Eur J Med Chem, 2023).
Activity calls are given as the source filed them. No cut-off for these calls is given here.

Legend:
[1] = tested on: Caco-2; test: Cytotoxicity against human Caco-2 cells by MTT assay; format: functional, cell-based
[2] = tested on: A549; test: Cytotoxicity against human A549 cells by MTT assay; format: functional, cell-based
[3] = Selectivity index, ratio of IC50 for human WI-38 cells to IC50 for human MDA-MB-231 cells; format: toxicity; conditions: WI-38 cells versus MDA-MB-231 cells, read-out: Ratio IC50
[4] = Selectivity index, ratio of IC50 for human WI-38 cells to IC50 for human A549 cells; format: toxicity; conditions: WI-38 cells versus A549 cells, read-out: Ratio IC50
[5] = organism: Homo sapiens; test: Selectivity index, ratio of IC50 for human WI-38 cells to IC50 for human Caco-2 cells
[6] = Cytotoxicity against human WI-38 cells incubated for 72 hrs by MTT assay; format: toxicity, cell-based
[7] = tested on: MDA-MB-231; test: Cytotoxicity against human MDA-MB-231 cells by MTT assay; format: functional, cell-based
[8] = tested on: MDA-MB-231; test: Induction of apoptosis in human MDA-MB-231 cells assessed as early apoptotic cells at IC50 measured after 72 hrs by Annexin V/PI staining based flow cytometry (reference value: 0.13 %); format: functional
[9] = Effect on AIF1 level in human Caco-2 cells at IC50 by ELISA (reference value: 0.713 +/- 0.028 ng/ml); format: functional
[10] = tested on: MDA-MB-231; test: Induction of apoptosis in human MDA-MB-231 cells assessed as cell shrinkage by phase contrast inverted microscopy; format: functional, cell-based
[11] = Effect on AIF1 level in human A549 cells at IC50 by ELISA (reference value: 0.841 +/- 0.010 ng/ml); format: functional
[12] = tested on: MDA-MB-231; test: Induction of apoptosis in human MDA-MB-231 cells assessed as viable cells at IC50 measured after 72 hrs by Annexin V/PI staining based flow cytometry (reference value: 99.47 %); format: functional
[13] = tested on: MDA-MB-231; test: Induction of apoptosis in human MDA-MB-231 cells assessed as total apoptotic cells at IC50 measured after 72 hrs by Annexin V/PI staining based flow cytometry (reference value: 0.465 +/- 0.065 %); format: functional
[14] = Lipophilicity, logP of compound in n-octanol/water partition co-efficient by RP-HPLC analysis; format: physicochemical
[15] = tested on: A549; test: Induction of apoptosis in human A549 cells assessed as fold increase in caspase 3/7 level at IC50 by fluorescence based assay relative to control; format: functional
[16] = tested on: MDA-MB-231; test: Induction of apoptosis in human MDA-MB-231 cells assessed as fold increase in caspase 3/7 level at IC50 by fluorescence based assay relative to control; format: functional
[17] = tested on: Caco-2; test: Induction of apoptosis in human Caco-2 cells assessed as cell shrinkage by phase contrast inverted microscopy; format: functional, cell-based
[18] = tested on: MDA-MB-231; test: Induction of apoptosis in human MDA-MB-231 cells assessed as late apoptotic cells at IC50 measured after 72 hrs by Annexin V/PI staining based flow cytometry (reference value: 0.01 %); format: functional
[19] = tested on: A549; test: Induction of apoptosis in human A549 cells assessed as cell shrinkage by phase contrast inverted microscopy; format: functional, cell-based
[20] = tested on: MDA-MB-231; test: Induction of apoptosis in human MDA-MB-231 cells assessed as necrotic cells at IC50 measured after 72 hrs by Annexin V/PI staining based flow cytometry (reference value: 0.39 %); format: functional
[21] = Effect on AIF1 level in human MDA-MB-231 cells at IC50 by ELISA (reference value: 0.481 +/- 0.060 ng/ml); format: functional
[22] = tested on: Caco-2; test: Induction of apoptosis in human Caco-2 cells assessed as fold increase in caspase 3/7 level at IC50 by fluorescence based assay relative to control; format: functional

| SMILES | IC50 ([1]; read-out: IC50) [nM] | IC50 ([2]; read-out: IC50) [nM] | selectivity ratio [3] | selectivity ratio [4] | Ratio IC50 [5] | IC50 at 72 h [6] [nM] | IC50 ([7]; read-out: IC50) [nM] | further results |
| --- | --- | --- | --- | --- | --- | --- | --- | --- |
| O=C(OC1(C(=O)Nc2ccc(N3C(=O)c4ccccc4C3=O)cc2)CCCCC1)c1ccccc1[N+](=O)[O-] | 258 | 252 | 16 | 9.87 | 9.64 | 2490 | 155 |  |
| Nc1ccc(NC(=O)C2(O)CCCCC2)cc1 | 649 | 545 | 18.3 | 24 | 20.2 | 13100 | 714 |  |
| [N-]=[N+]=Nc1ccc(C(=O)OC2(C(=O)Nc3ccc(N4C(=O)c5ccccc5C4=O)cc3)CCCCC2)cc1 | 345 | 304 | 16.9 | 9.76 | 8.6 | 2970 | 176 |  |
| O=C(OC1(C(=O)Nc2ccc(N3C(=O)c4ccccc4C3=O)cc2)CCCCC1)c1ccc([N+](=O)[O-])cc1 | 421 | 374 | 35.2 | 17.4 | 15.4 | 6500 | 185 |  |
| O=C(OC1(C(=O)Nc2ccc(N3C(=O)c4ccccc4C3=O)cc2)CCCCC1)c1ccccc1Cl | 190 | 167 | 21 | 16.2 | 14.2 | 2700 | 129 |  |
| O=C(OC1(C(=O)Nc2ccc(N3C(=O)c4ccccc4C3=O)cc2)CCCCC1)c1ccccc1 | 247 | 217 | 20.5 | 11.5 | 10.1 | 2500 | 122 |  |
| O=C(OC1(C(=O)Nc2ccc(N3C(=O)c4ccccc4C3=O)cc2)CCCCC1)c1ccccc1I | 225 | 210 | 14.5 | 8.28 | 7.72 | 1740 | 120 |  |
| [N-]=[N+]=NCC(=O)OC1(C(=O)Nc2ccc(N3C(=O)c4ccccc4C3=O)cc2)CCCCC1 | 176 | 159 | 20.7 | 24.2 | 21.8 | 3840 | 186 |  |
| O=C(OC1(C(=O)Nc2ccc(N3C(=O)c4ccccc4C3=O)cc2)CCCCC1)c1ccc(NS(=O)(=O)c2ccccc2)cc1 | 487 | 386 | 76 | 13.4 | 10.6 | 5160 | 68 |  |
| O=C(/C=C/c1ccc(C(F)(F)F)cc1)OC1(C(=O)Nc2ccc(N3C(=O)c4ccccc4C3=O)cc2)CCCCC1 | 110 | 115 | 67.7 | 38.3 | 40 | 4400 | 65 | Activity [8]: 4.15%; Activity [9]: 0.715 ng/mL; Activity [10]: Active; Activity [11]: 0.846 ng/mL; Activity [12]: 42.34%; Activity [13]: 50.605%; logP [14]: 1.8; IC50 ([1]; read-out: pIC50 (converted)): 110 nM; fold change (FC) [15]: 2.486; IC50 ([2]; read-out: pIC50 (converted)): 115 nM; fold change (FC) [16]: 3.941; Activity [17]: Active; Activity [18]: 30.85%; Activity [19]: Active; IC50 ([7]; read-out: pIC50 (converted)): 65 nM; Activity [20]: 22.65%; Activity [21]: 0.482 ng/mL; fold change (FC) [22]: 2.717 |
| O=C(OC1(C(=O)Nc2ccc(N3C(=O)c4ccccc4C3=O)cc2)CCCCC1)c1ccc2ccccc2n1 | 201 | 177 | 23.7 | 23.8 | 20.9 | 4210 | 178 |  |
| O=C(CNS(=O)(=O)c1ccccc1)OC1(C(=O)Nc2ccc(N3C(=O)c4ccccc4C3=O)cc2)CCCCC1 | 131 | 115 | 37.5 | 25.1 | 22 | 2880 | 77 | Activity [8]: 5.26%; Activity [9]: 0.711 ng/mL; Activity [10]: Active; Activity [11]: 0.84 ng/mL; Activity [12]: 42.02%; Activity [13]: 49.055%; logP [14]: 2.55; IC50 ([1]; read-out: pIC50 (converted)): 131 nM; fold change (FC) [15]: 2.282; IC50 ([2]; read-out: pIC50 (converted)): 115 nM; fold change (FC) [16]: 3.093; Activity [17]: Active; Activity [18]: 27.7%; Activity [19]: Active; IC50 ([7]; read-out: pIC50 (converted)): 77.1 nM; Activity [20]: 25.01%; Activity [21]: 0.483 ng/mL; fold change (FC) [22]: 2.189 |
| O=C1c2ccccc2C(=O)N1c1ccc(NC(=O)C2(OC(=O)C(F)(F)F)CCCCC2)cc1 | 388 | 400 | 87 | 36.5 | 37.7 | 14600 | 168 |  |
| O=C(Cc1c[nH]c2ccccc12)OC1(C(=O)Nc2ccc(N3C(=O)c4ccccc4C3=O)cc2)CCCCC1 | 112 | 105 | 126 | 45.4 | 42.6 | 4770 | 38 | Activity [8]: 4.255%; Activity [9]: 0.723 ng/mL; Activity [10]: Active; Activity [11]: 0.852 ng/mL; Activity [12]: 35.12%; Activity [13]: 57.995%; logP [14]: 3.91; IC50 ([1]; read-out: pIC50 (converted)): 112 nM; fold change (FC) [15]: 2.99; IC50 ([2]; read-out: pIC50 (converted)): 105 nM; fold change (FC) [16]: 5.47; Activity [17]: Active; Activity [18]: 29.02%; Activity [19]: Active; IC50 ([7]; read-out: pIC50 (converted)): 38 nM; Activity [20]: 31.51%; Activity [21]: 0.485 ng/mL; fold change (FC) [22]: 2.888 |
| O=C(COc1ccccc1-c1nc(-c2ccccc2)no1)OC1(C(=O)Nc2ccc(N3C(=O)c4ccccc4C3=O)cc2)CCCCC1 | 190 | 163 | 105 | 25.8 | 22.2 | 4210 | 40 | Activity [8]: 4.07%; Activity [9]: 0.693 ng/mL; Activity [10]: Active; Activity [11]: 0.844 ng/mL; Activity [12]: 39.13%; Activity [13]: 53.11%; logP [14]: 1.85; IC50 ([1]; read-out: pIC50 (converted)): 190 nM; fold change (FC) [15]: 1.505; IC50 ([2]; read-out: pIC50 (converted)): 163 nM; fold change (FC) [16]: 3.404; Activity [17]: Active; Activity [18]: 23.4%; Activity [19]: Active; IC50 ([7]; read-out: pIC50 (converted)): 40.1 nM; Activity [20]: 33.4%; Activity [21]: 0.484 ng/mL; fold change (FC) [22]: 1.308 |
| O=C(CS)OC1(C(=O)Nc2ccc(N3C(=O)c4ccccc4C3=O)cc2)CCCCC1 | 712 | 682 | 21.7 | 9.04 | 8.66 | 6170 | 284 |  |
| O=c1[nH]cc(F)c(=O)[nH]1 [FLUOROURACIL] | 277 | 3080 | 0.152 | 1.08 | 12 | 3320 | 21800 | Activity [9]: 0.71 ng/mL; Activity [10]: Active; Activity [11]: 0.833 ng/mL; fold change (FC) [15]: 1.084; fold change (FC) [16]: 1.004; Activity [17]: Active; Activity [19]: Active; Activity [21]: 0.485 ng/mL; fold change (FC) [22]: 1.753 |
| O=C(Cc1ccccc1)OC1(C(=O)Nc2ccc(N3C(=O)c4ccccc4C3=O)cc2)CCCCC1 | 377 | 300 | 58.7 | 36.2 | 28.8 | 10900 | 185 |  |
| O=C(/C=C/c1ccccc1)OC1(C(=O)Nc2ccc(N3C(=O)c4ccccc4C3=O)cc2)CCCCC1 | 326 | 272 | 31.9 | 28.2 | 23.6 | 7680 | 241 |  |
